Experimental data published in US12565494B2, “Inhibitors of human respiratory syncytial virus and metapneumovirus” (priority 2022, dated 2026).
Read-outs that look alike come from different tables or passages of the source.

Key:
RSV-A2-GFP virus = assay: microbe, parasite or virus in culture; assay type: cell-based, Human Respiratory Syncytial Virus; settings: Calu-1 cells, RSV-A2-GFP MOI=1.2, 96 hrs, GFP-expressing cells counted
Method: To set up the assay, ARF vials were thawed in a 37° C. water bath and a control compound was resuspended in assay media DMEM (Dulbecco's Modified Eagle Medium) containing 2% FBS, 100 U/ml Penicillin-Streptomycin.
GFP sequence was derived from pJTI™ R4 Dest CMV N-EmGFP pA Vector (Invitrogen) and was cloned into the intergenic sequence between wild-type RSV-A2 P and M genes using standard recombineering techniques. Recombinant RSV-A2-GFP was propagated in Hep2 cells (human cells contain HeLa marker chromosomes and were derived via HeLa contamination, ATCC CCL-23) with a Multiplicity of Infection (MOI) of 0.1. Virus was harvested 3 days after infection by collecting all culture material and then freeze-thawing the mixture for 5 minutes. Working virus stocks were generated by thawing frozen viral cultures in 37° C. water bath, which were centrifuged at 218 g for 15 min at 4° C. 1/10 of 10×SPG (Biological Industries 06-3061-01-5A) were added and then mixed. The supernatant was aliquoted, frozen in liquid nitrogen, and then transferred to a −80° C. freezer for storage. Virus titer was determined by automated plaque assay in HEp-2 cells following methods described previously (Wen Z. et al.; 2019).
Calu-1 cells were purchased from ATCC (Cat #HTB-54) and were expanded in growth media (DMEM containing 10% FBS, 100 U/ml Penicillin-Streptomycin). To make ARF, cell culture media was removed and discarded and the cell layer was briefly rinsed with PBS to remove serum. 2.5 mL of TrypLE Express solution were added and cells incubated until dislodged, to which growth media was added and the cells were resuspended by gentle pipetting. Cells were counted for concentration and viability as determined by ViCell. Cells were centrifuged at RT, 300 g for 5 minutes to pellet cells. The supernatant was gently aspirated and the pellet was flicked to loosen cells. Cells were resuspended in an appropriate volume of freezing medium (DMEM containing 10% DMSO, 10% FBS, 100 U/ml Penicillin-Streptomycin) to achieve a concentration of 5×10^6 cells/mL. 1 mL aliquots of the cell suspension were transferred to freezing vials. The vials were put into an upright container in a −80° C. freezer overnight before transferring vials to liquid nitrogen for storage
Assay ready freeze-down (ARF, generation described separately) Calu-1 cells (ATCC HTB-54) were used. Compound plates were prepared by dispensing compounds dissolved in DMSO into the wells of a 384 well Corning® 3985 plate with an ECHO acoustic dispenser and compounds were tested in 10-point serial 3-fold dilution. […] To set up the assay, ARF vial(s) were thawed in a 37° C. water bath and were then resuspended into assay media (DMEM containing 2% FBS, 100 U/ml Penicillin-Streptomycin). Cells were counted using default parameters on ViCell and diluted to 20,000 cells/mL in assay media. RSV-A2-GFP virus was added to cells at 24,000 pfu/ml (MOI=1.2) and mixed by gentle inversion. 10 μL/well of 100% DMSO was dispensed as CellTiter-Glo (CTG) assay Max_E controls wells. The cells were dispensed at 50 μL/well using Bravo with 50 μL filtered tips into compound plates. Plates were covered with MicroClime lids, loaded with 7.5 mL of assay media to minimize evaporation, and were incubated at 37° C. and 5% CO2 for 96 hrs. Following incubation, distinct, GFP-expressing cells were counted using an Acumen imaging system with appropriate settings. A same-well CTG assay was performed by adding 10 μL/well reconstituted CellTiter-Glo reagent (Promega G7573) and plates were read on PerkinElmer Envision according to manufacturer's instructions. Raw data were loaded and analyzed in ActivityBase. Antiviral IC50 and cytotoxicity CC50 values were determined using a 4 parameter logistic fit based on the Levenberg-Marquardt algorithm. Model: 205-4 Parameter Logistic.

hMPV-GFP virus = assay: microbe, parasite or virus in culture; assay type: cell-based, Human Metapneumovirus; settings: VERO cells, hMPV-GFP MOI=1.25, 48 hrs, GFP-expressing cells counted
Method: GFP expressing rgHMPV #3 p3 was generated in Dr. Buchholz's lab (Biacchesi S. et al., J Virol. 2007 June; 81(11): 6057-6067) and propagated in VERO cells (ATCC Cat #CCL-81) with a Multiplicity of Infection (MOI) of 0.1. Virus was harvested 4 days after infection by collecting cultured material and was freeze-thaw cycled in liquid nitrogen twice. Working virus stocks were generated from thawing frozen samples in 37° C. water bath, which were centrifuged at 218 g for 15 min at 4° C. 1/10 of 10×SPG (Biological Industries 06-3061-01-5A) were added and then mixed. The supernatant was aliquoted, frozen in liquid nitrogen, and then transferred to a −80° C. freezer for storage. Virus titer was determined by performing titration test in 96-well plates and calculate approximate virus titer using GFP event/well data.
Compound plates were prepared by dispensing compounds dissolved in DMSO into wells of a 384 well Corning 3985 polystyrene flat clear bottom optical imaging microplate (202.5 nL/well) using an ECHO acoustic dispenser. Each compound was tested in 10-point serial 3-fold dilution (typical final concentrations: 40,300 nM-2 nM). […] Continuous culture of VERO cells was maintained in complete culture media (OptiMEM supplemented with 2 mM GlutaMAX™ and 100 U/ml Penicillin-Streptomycin). To set up the assay, VERO cells were trypsinized with 0.25% Trypsin-EDTA until cells were dislodged, then cells were re-suspended with 1 mL FBS. Cells were spundown at 300 g for 5 minutes and cells were washed twice with culture media and counted using default parameters on ViCell. Cells were then diluted to 100,000 cells/mL (5,000 cells/50 μL) in complete culture media+TrypLE Select (80 μL/mL). hMPV-GFP virus was added to cells at 125,000 pfu/mL (MOI=1.25) and were mixed by gentle inversion. 10 μL/well of 100% DMSO was dispensed to CellTiter-Glo (CTG) assay Max_E controls wells. Cells were dispensed at 50 μL/well using Bravo and 50 μL filtered tips into compound plates. Plates were covered with MicroClime lids and loaded with 7.5 mL of assay media to minimize evaporation. Plates were lightly shaken for 10 minutes at room temperature and then incubated at 37° C. and 5% CO2 for 48 hrs. Following incubation, distinct GFP-expressing cells were counted using an Acumen imaging system with appropriate settings. A same-well CTG assay was performed by adding 10 μL/well reconstituted CellTiter-Glo reagent (Promega G7573) and plates were read on PerkinElmer Envision according to manufacturer's instructions. Raw data were loaded and analyzed in ActivityBase. Antiviral IC50 and cytotoxicity CC50 values were determined using a 4 parameter logistic fit based on the Levenberg-Marquardt algorithm. Model: 205-4 Parameter Logistic.

[1] = human respiratory syncytial virus, Calu-1, 96 h, read-out: RSV EC50, Table I Summary of Activities for RSV
[2] = read-out: RSV EC50, Table II Summary of Activities for hMPV
[3] = Vero, 48 h, read-out: RSV EC50, Table II Summary of Activities for hMPV
[4] = read-out: RSV EC50, Table I Summary of Activities for RSV

SMILES	EC50 (RSV-A2-GFP virus; [1])	EC50 (hMPV-GFP virus; [2])	EC50 (hMPV-GFP virus; [3])	further results
CC(O)c1nc(-c2cscn2)sc1C(=O)N1C[C@@H]2[C@H](C1)[C@H]2Oc1cc(C(C)(C)N)cc(-c2ccc(F)cc2)n1 (single isomer, unassigned; enantiomer 1) [Example 16A]	< 0.01 µM	0.01 to 0.1 µM		
Cn1nc(-c2cscn2)cc1C(=O)N1C[C@H]2[C@H](Oc3cc(C(C)(C)N)cc(-c4ccc(F)cc4)n3)[C@@]2(C)C1 (single isomer, unassigned; enantiomer 1) [Example 43A]	< 0.01 µM		0.01 to 0.1 µM	
Cn1nc(-c2ncco2)cc1C(=O)N1C[C@H]2[C@H](Oc3cc(C(C)(C)N)cc(-c4ccc(F)cc4)n3)[C@@]2(C)C1 (single isomer, unassigned; enantiomer 1) [Example 44A]	< 0.01 µM		0.01 to 0.1 µM	
Cn1nc(-c2ccon2)cc1C(=O)N1C[C@H]2[C@H](Oc3cc(C(C)(C)N)cc(-c4ccc(F)cc4)n3)[C@@]2(C)C1 (single isomer, unassigned; enantiomer 1) [Example 45A]	< 0.01 µM		> 0.1 µM	
Cn1nc(-c2cscn2)cc1C(=O)N1C[C@H]2[C@H](Oc3cc(C(C)(C)N)cc(N4CCC(C)(C)CC4)n3)[C@@]2(C)C1 (single isomer, unassigned; enantiomer 1) [Example 46A]	< 0.01 µM		> 0.1 µM	
Cn1nc(-c2cscn2)cc1C(=O)N1C[C@@H]2[C@H](C1)[C@H]2Oc1cc(C2(C)CCN2)cc(-c2ccc(F)cc2)n1 (single isomer, unassigned; enantiomer 1) [Example 55A]	< 0.01 µM	0.01 to 0.1 µM		
Cn1nc(-c2cscn2)cc1C(=O)N1C[C@@H]2[C@H](C1)[C@H]2Oc1cc(C2(C)CCCN2)cc(-c2ccc(F)cc2)n1 (single isomer, unassigned; enantiomer 1) [Example 56A]	< 0.01 µM		> 0.1 µM	
Cn1nc(-c2cscn2)cc1C(=O)N1C[C@@H]2[C@H](C1)[C@H]2Oc1cc(C(C)(N)CO)cc(-c2ccc(F)cc2)n1 (single isomer, unassigned; enantiomer 1) [Example 57A]	< 0.01 µM		> 0.1 µM	
Cn1nc(-c2ncco2)cc1C(=O)N1C[C@@H]2C(Oc3cc(C(C)(N)CO)cc(-c4ccc(F)cc4)n3)[C@@H]2C1 (single isomer, unassigned; enantiomer 1) [Example 58A]				EC50 (RSV-A2-GFP virus; Table I Summary of Activities for RSV, read-out: RSV EC50): < 0.01 µM; EC50 (hMPV-GFP virus; Table II Summary of Activities for hMPV, read-out: RSV EC50): > 0.1 µM
CC(N)c1cc(O[C@H]2[C@@H]3CN(C(=O)c4cc(-c5cscn5)nn4C)C[C@@H]32)nc(-c2ccc(F)cc2)c1 (single isomer, unassigned; enantiomer 1) [Example 61A]	< 0.01 µM		> 0.1 µM	
CC(N)c1cc(O[C@H]2[C@@H]3CN(C(=O)c4cc(-c5ccon5)nn4C)C[C@@H]32)nc(-c2ccc(F)cc2)c1 (single isomer, unassigned; enantiomer 1) [Example 62A]	< 0.01 µM		> 0.1 µM	
Cn1nc(-c2cscn2)cc1C(=O)N1C[C@@H]2[C@H](C1)[C@H]2Oc1cc(C(C)(C)N)cc(C2CCC(C)(C)CC2O)n1 (single isomer, unassigned; enantiomer 1) [Example 66A]	< 0.01 µM		> 0.1 µM	
Cn1nc(-c2cscn2)cc1C(=O)N1C[C@@H]2[C@H]1C[C@H]2Oc1cc(C(C)(C)N)cc(-c2ccc(F)cc2)n1 (single isomer, unassigned; enantiomer 2) [Example 1]	< 0.01 µM		> 0.1 µM	
Cn1nc(-c2ncco2)cc1C(=O)N1C[C@@H]2[C@H]1C[C@H]2Oc1cc(C(C)(C)N)cc(-c2ccc(F)cc2)n1 (single isomer, unassigned; enantiomer 2) [Example 2]	0.01 to 0.1 µM		> 0.1 µM	
CC(O)c1nc(-c2cscn2)sc1C(=O)N1C[C@@H]2[C@H](C1)[C@H]2Oc1cc(C(C)(C)N)cc(-c2ccc(F)cc2)n1 (single isomer, unassigned; enantiomer 2) [Example 16B]		> 0.1 µM		EC50 (RSV-A2-GFP virus; [4]): < 0.01 µM
Cn1nc(-c2cscn2)cc1C(=O)N1C[C@H]2[C@H](Oc3cc(C(C)(C)N)cc(-c4ccc(F)cc4)n3)[C@@]2(C)C1 (single isomer, unassigned; enantiomer 2) [Example 43B]	< 0.01 µM		> 0.1 µM	
Cn1nc(-c2ncco2)cc1C(=O)N1C[C@H]2[C@H](Oc3cc(C(C)(C)N)cc(-c4ccc(F)cc4)n3)[C@@]2(C)C1 (single isomer, unassigned; enantiomer 2) [Example 44B]		0.01 to 0.1 µM		EC50 (RSV-A2-GFP virus; [4]): < 0.01 µM
Cn1nc(-c2ccon2)cc1C(=O)N1C[C@H]2[C@H](Oc3cc(C(C)(C)N)cc(-c4ccc(F)cc4)n3)[C@@]2(C)C1 (single isomer, unassigned; enantiomer 2) [Example 45B]		> 0.1 µM		EC50 (RSV-A2-GFP virus; [4]): < 0.01 µM
Cn1nc(-c2cscn2)cc1C(=O)N1C[C@H]2[C@H](Oc3cc(C(C)(C)N)cc(N4CCC(C)(C)CC4)n3)[C@@]2(C)C1 (single isomer, unassigned; enantiomer 2) [Example 46B]		> 0.1 µM		EC50 (RSV-A2-GFP virus; [4]): < 0.01 µM
